In patent US20090062258A1, “FUSED PYRIMIDINE DERIVATIVE AND USE THEREOF” (Takeda Pharmaceutical Company Limited, priority 2005, published 2009):

Target: T1, human GnRH receptor (Homo sapiens, UniProt P30968)
T1 construct: expressed in transfected cells; host or cells: CHO (Chinese Hamster Ovary) cells; membrane fraction
T1 sequence (P30968 1-328): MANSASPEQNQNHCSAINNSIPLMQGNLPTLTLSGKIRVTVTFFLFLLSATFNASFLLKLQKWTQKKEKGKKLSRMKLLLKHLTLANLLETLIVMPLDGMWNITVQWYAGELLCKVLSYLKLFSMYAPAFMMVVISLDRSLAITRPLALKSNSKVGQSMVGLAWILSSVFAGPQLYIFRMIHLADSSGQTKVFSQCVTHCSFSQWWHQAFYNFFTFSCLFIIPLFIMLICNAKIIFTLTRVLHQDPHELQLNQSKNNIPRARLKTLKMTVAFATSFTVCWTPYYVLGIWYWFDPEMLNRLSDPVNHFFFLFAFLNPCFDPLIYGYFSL
Assay: 125I-leuprorelin binding assay (binding inhibitory rate)
Settings: 10 nM of the testing compound; 800 pM 125I-leuprorelin; 10 μg human GnRH receptor membrane fraction (CHO cells); room temperature 1 hour; read-out: Binding inhibitory ratio (%)
Experimental: 10 μL of a 3×10^−4 M aqueous solution of leuprorelin and 10 μL of 0.01 mg/mL lactoperoxidase were placed in a tube, and 10 μL (37 MBq) of a Na^125I solution was added thereto. After stirring, 10 μL of 0.001% H2O2 was added to allow the mixture to undergo a reaction at room temperature for 20 minutes. 700 μL of a 0.05% TFA solution was added to stop the reaction, and purification by reversed phase HPLC was carried out. The conditions for HPLC are described below. ^125I-leuprorelin was eluted at a retention time of 26 to 27 minutes.
Human GnRH receptor-expressing CHO cells were cultured until the cells were reached a 90% confluent state in a T-150 flask. The cells were separated using 0.02% EDTA-PBS and were centrifuged at 500×g for 5 minutes. A homogenate buffer for cells (10 mM NaHCO3, 1 mM EDTA, 1 mM PMSF, 0.5 μg/mL Pepstatin, 2 μg/mL Leupeptin, pH 7.4) was added to the cell pellet, and the mixture was homogenized with a Polytron homogenizer. After centrifugation of the homogenate at 4° C. and at 1000×g for 10 minutes, the supernatant was placed in an ultracentrifuge tube and was centrifuged at 4° C. and at 49,300×g for 1 hour to obtain a precipitate of a membrane fraction. This precipitate was suspended in an assay buffer (50 mM Tris-HCl, 150 mM NaCl, 5 mM EDTA, pH 7.4) and then dispensed and stored at −80° C., so that the suspension can be thawed every time it is taken for use.
A ^125I-leuprorelin binding assay was carried out using 200 μL of an assay buffer containing 10 μg of human GnRH receptor membrane fraction, 800 pM of ^125I-leuprorelin and 10 nM of the testing compound.
The non-specific binding radioactivity was measured in the presence of 1 μM of non-labeled leuprorelin. After leaving the mixture to stand at room temperature for 1 hour, ^125I-leuprorelin was captured on a GF/C filter (PerkinElmer, Inc.), and the filter was washed with ice-cold 50 mM Tris-HCl (pH 7.4) using a cell harvester. After drying the filter, a liquid scintillation cocktail for microplate was added, and the membrane-bound radioactivity was measured using a TopCount.
The value of (TB-SB)/(TB-NSB)×100 (SB: radioactivity upon addition of the compound, TB: maximum binding radioactivity, NSB: non-specific binding radioactivity) was calculated to determine the binding inhibitory rate in the presence of 10 nM of each testing material.

`CC(C)(C)OC(=O)CNC(=O)c1scc2[nH]c(=O)n(-c3cccc(S(=O)(=O)N4CCCc5ccccc54)c3)c(=O)c12` [Example 7 (1), N-({3-[3-(3,4-Dihydroquinolin-1(2H)-ylsulfonyl)phenyl]-2,4-dioxo-1,2,3,4-tetrahydrothieno[3,4-d]pyrimidin-5-yl}carbonyl) glycine tert-butyl ester] showed an inhibition at 0.01 µM of 92%.

With `CNC(=O)c1scc2[nH]c(=O)n(-c3cc(S(=O)(=O)N4CCCc5ccccc54)ccc3Cl)c(=O)c12` [Example 16, 3-[2-Chloro-5-(3,4-dihydroquinolin-1(2H)-ylsulfonyl)phenyl]-N-methyl-2,4-dioxo-1,2,3,4-tetrahydrothieno[3,4-d]pyrimidine-5-carboxamide] the inhibition at 0.01 µM was 96%.

`CCN(C(=O)c1csc(-n2c(=O)[nH]c3csc(C(=O)O)c3c2=O)c1)c1ccccc1` [Example 33-2, 3-(4-{[Ethyl(phenyl)amino]carbonyl}-2-thienyl)-2,4-dioxo-1,2,3,4-tetrahydrothieno[3,4-d]pyrimidine-5-carboxylic acid] was tested, and the inhibition at 0.01 µM was 85%.

`O=C(O)c1scc2[nH]c(=O)n(-c3cc(S(=O)(=O)N4CCCCc5sccc54)sc3Cl)c(=O)c12` [Example 6, 3-[2-Chloro-5-(5,6,7,8-tetrahydro-4H-thieno[3,2-b]azepin-4-ylsulfonyl)-3-thienyl]-2,4-dioxo-1,2,3,4-tetrahydrothieno[3,4-d]pyrimidine-5-carboxylic acid] showed an inhibition at 0.01 µM of 97%.

`O=c1[nH]c2csc(CO)c2c(=O)n1-c1cc(S(=O)(=O)N2CCCc3ccccc32)cs1` [Example 31, 3-[4-(3,4-Dihydroquinolin-1(2H)-ylsulfonyl)-2-thienyl]-5-(hydroxymethyl)thieno[3,4-d]pyrimidin-2,4(1H,3H)-dione] was tested, and the inhibition at 0.01 µM was 100%.

In the case of `O=c1[nH]c2ccsc2c(=O)n1-c1cccc(S(=O)(=O)N2CCCc3ccccc32)c1` [Example 1, 3-[3-(3,4-Dihydroquinolin-1(2H)-ylsulfonyl)phenyl]thieno[3,2-d]pyrimidin-2,4(1H,3H)-dione], the inhibition at 0.01 µM was 86%.

For `O=C(O)c1csc2[nH]c(=O)n(-c3cccc(S(=O)(=O)N4CCCc5ccccc54)c3)c(=O)c12` [Example 34 (3), 3-[3-(3,4-Dihydroquinolin-1(2H)-ylsulfonyl)phenyl]-2,4-dioxo-1,2,3,4-tetrahydrothieno[2,3-d]pyrimidine-5-carboxylic acid], the inhibition at 0.01 µM was 100%.

For `CC(O)c1scc2[nH]c(=O)n(-c3cccc(S(=O)(=O)N4CCCc5ccccc54)c3)c(=O)c12` (stereo not drawn) [Example 24, 3-[3-(3,4-Dihydroquinolin-1(2H)-ylsulfonyl)phenyl]-5-(1-hydroxyethyl)thieno[3,4-d]pyrimidin-2,4(1H,3H)-dione], the inhibition at 0.01 µM was 95%.

Work on `Cc1nnc(-c2scc3[nH]c(=O)n(-c4cccc(S(=O)(=O)N5CCCc6ccccc65)c4)c(=O)c23)o1` [Example 12, 3-[3-(3,4-dihydroquinolin-1(2H)-ylsulfonyl)phenyl]-5-(5-methyl-1,3,4-oxadiazol-2-yl)thieno[3,4-d]pyrimidin-2,4(1H,3H)-dione] yielded an inhibition at 0.01 µM of 72%.

`COC(=O)c1scc2[nH]c(=O)n(-c3cc(S(=O)(=O)N4CCCc5ccccc54)cs3)c(=O)c12` [Example 30, Methyl 3-[4-(3,4-dihydroquinolin-1(2H)-ylsulfonyl)-2-thienyl]-2,4-dioxo-1,2,3,4-tetrahydrothieno[3,4-d]pyrimidine-5-carboxylate] was tested, and the inhibition at 0.01 µM was 110%.

`N#Cc1cccc(N(C(=O)c2cc(-n3c(=O)[nH]c4csc(C(=O)O)c4c3=O)c(Cl)s2)C2CC2)c1Cl` [Example 40, 3-(2-Chloro-5-{[(2-chloro-3-cyanophenyl)(cyclopropyl)amino]carbonyl}-3-thienyl)-2,4-dioxo-1,2,3,4-tetrahydrothieno[3,4-d]pyrimidine-5-carboxylic acid] showed an inhibition at 0.01 µM of 101%.

For `N#Cc1cccc(N(C(=O)c2cc(-n3c(=O)[nH]c4csc(C(N)=O)c4c3=O)c(Cl)s2)C2CC2)c1Cl` [Example 41, 3-(2-Chloro-5-{[(2-chloro-3-cyanophenyl)(cyclopropyl)amino]carbonyl}-3-thienyl)-2,4-dioxo-1,2,3,4-tetrahydrothieno[3,4-d]pyrimidine-5-carboxamide], the inhibition at 0.01 µM was 100%.

Compound `N#Cc1cccc(N(C(=O)c2cc(-n3c(=O)[nH]c4csc(CO)c4c3=O)c(Cl)s2)C2CC2)c1Cl` [Example 39, 5-Chloro-N-(2-chloro-3-cyanophenyl)-N-cyclopropyl-4-[5-(hydroxymethyl)-2,4-dioxo-1,2-dihydrothieno[3,4-d]pyrimidine-3(4H)-yl]thiophene-2-carboxamide] has an inhibition at 0.01 µM of 101%.

`COC(=O)c1scc2[nH]c(=O)n(-c3cc(C(=O)N(c4cccc(Br)c4Cl)C4CC4)sc3Cl)c(=O)c12` [Example 37, Methyl 3-(5-{[(3-bromo-2-chlorophenyl)(cyclopropyl)amino]carbonyl}-2-chloro-3-thienyl)-2,4-dioxo-1,2,3,4-tetrahydrothieno[3,4-d]pyrimidine-5-carboxylate] was tested, and the inhibition at 0.01 µM was 100%.

In the case of `COC(=O)c1scc2[nH]c(=O)n(-c3cc(C(=O)N(c4cccc(C#N)c4Cl)C4CC4)sc3Cl)c(=O)c12` [Example 38, Methyl 3-(2-chloro-5-{[(2-chloro-3-cyanophenyl)(cyclopropyl)amino]carbonyl}-3-thienyl)-2,4-dioxo-1,2,3,4-tetrahydrothieno[3,4-d]pyrimidine-5-carboxylate], the inhibition at 0.01 µM was 95%.
